{"source": "paper PMC11984407", "about": "“A natural small molecule isoginkgetin alleviates hypercholesterolemia and atherosclerosis by targeting ACLY” (Theranostics, 2025)", "key": {"recombinant ACLY protein": {"target": "T1, recombinant ACLY protein (Homo sapiens, UniProt P53396)", "T1 sequence (P53396 1-1101)": "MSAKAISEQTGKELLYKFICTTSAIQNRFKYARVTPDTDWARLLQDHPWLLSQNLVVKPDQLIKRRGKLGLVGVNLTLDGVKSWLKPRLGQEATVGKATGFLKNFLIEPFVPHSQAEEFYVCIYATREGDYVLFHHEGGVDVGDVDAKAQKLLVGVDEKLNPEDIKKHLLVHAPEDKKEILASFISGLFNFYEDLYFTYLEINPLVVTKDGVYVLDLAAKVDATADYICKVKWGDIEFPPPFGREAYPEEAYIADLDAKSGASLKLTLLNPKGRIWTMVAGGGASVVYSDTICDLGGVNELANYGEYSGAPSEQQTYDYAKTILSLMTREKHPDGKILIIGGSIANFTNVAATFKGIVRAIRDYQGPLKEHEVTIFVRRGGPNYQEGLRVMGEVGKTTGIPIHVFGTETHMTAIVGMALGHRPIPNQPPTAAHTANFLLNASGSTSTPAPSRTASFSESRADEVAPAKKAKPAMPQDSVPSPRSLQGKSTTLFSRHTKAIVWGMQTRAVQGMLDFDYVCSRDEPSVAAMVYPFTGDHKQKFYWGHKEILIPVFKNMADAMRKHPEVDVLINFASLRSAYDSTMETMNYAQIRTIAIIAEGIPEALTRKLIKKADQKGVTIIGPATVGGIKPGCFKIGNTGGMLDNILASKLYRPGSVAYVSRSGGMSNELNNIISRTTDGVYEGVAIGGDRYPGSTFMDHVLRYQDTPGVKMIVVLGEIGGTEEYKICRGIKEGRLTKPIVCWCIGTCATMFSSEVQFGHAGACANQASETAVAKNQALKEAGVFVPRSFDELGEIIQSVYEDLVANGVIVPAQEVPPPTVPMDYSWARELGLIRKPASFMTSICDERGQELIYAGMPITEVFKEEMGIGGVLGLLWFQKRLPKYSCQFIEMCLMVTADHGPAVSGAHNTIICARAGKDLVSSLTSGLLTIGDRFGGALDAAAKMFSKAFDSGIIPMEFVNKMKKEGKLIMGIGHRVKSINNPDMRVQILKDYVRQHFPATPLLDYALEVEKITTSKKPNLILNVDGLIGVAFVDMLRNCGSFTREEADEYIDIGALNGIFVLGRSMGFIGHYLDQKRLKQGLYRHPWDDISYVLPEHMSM", "assay": "Surface plasmon resonance (OpenSPR)", "assay_type": "binding", "conditions": "SPR, 1:1 Langmuir model; read-out: equilibrium dissociation constant (KD)", "description": "The interaction between isoginkgetin and ACLY was examined using an OpenSPR instrument (Nicaya, Canada). The recombinant ACLY protein was immobilized on a carboxyl sensor chip (SEN-AU-100-3-COOH; Nicaya, Canada) via a standard amine coupling method. Isoginkgetin was injected into the running buffer at various concentrations (ranging from 0.5 to 8 μM) at a flow rate of 20 μL/min. The interaction parameter KD was determined using TraceDrawer evaluation software based on the 1:1 Langmuir binding model."}, "ACLY": {"target": "T2, ACLY (Mus musculus, UniProt Q91V92)", "T2 sequence (Q91V92 1-1091)": "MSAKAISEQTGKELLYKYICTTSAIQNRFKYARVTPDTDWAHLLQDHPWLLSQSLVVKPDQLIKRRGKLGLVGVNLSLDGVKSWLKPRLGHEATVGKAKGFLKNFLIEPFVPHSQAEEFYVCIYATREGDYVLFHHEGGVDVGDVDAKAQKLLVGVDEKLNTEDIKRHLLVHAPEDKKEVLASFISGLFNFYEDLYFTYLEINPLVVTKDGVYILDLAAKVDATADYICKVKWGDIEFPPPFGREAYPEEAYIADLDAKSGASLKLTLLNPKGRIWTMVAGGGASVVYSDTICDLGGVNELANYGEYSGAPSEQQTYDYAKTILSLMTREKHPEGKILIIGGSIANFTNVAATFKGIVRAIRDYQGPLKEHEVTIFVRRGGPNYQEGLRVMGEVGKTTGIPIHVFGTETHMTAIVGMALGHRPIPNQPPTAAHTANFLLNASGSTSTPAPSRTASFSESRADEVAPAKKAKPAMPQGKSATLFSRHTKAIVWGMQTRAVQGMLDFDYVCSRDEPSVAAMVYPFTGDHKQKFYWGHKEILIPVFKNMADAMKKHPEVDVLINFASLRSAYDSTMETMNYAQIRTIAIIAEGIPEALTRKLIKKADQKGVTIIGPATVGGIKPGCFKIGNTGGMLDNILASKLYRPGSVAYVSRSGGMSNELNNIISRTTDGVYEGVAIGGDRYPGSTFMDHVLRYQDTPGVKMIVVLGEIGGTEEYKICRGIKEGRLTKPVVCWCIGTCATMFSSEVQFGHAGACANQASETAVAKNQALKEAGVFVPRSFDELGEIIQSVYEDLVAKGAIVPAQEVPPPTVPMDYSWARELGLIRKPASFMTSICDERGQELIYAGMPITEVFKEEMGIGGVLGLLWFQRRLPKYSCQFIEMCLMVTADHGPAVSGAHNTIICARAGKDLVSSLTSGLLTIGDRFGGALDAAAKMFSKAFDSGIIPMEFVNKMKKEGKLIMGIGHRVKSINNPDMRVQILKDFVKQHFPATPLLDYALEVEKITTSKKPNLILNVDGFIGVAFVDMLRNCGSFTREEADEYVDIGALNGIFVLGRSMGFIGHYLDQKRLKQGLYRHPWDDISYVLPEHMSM", "assay": "ACLY activity in vivo, mouse liver extracts (MDH-coupled method)", "design": "from tissue; host or cells: liver of Apoe-/- mice dosed with ISOGK", "conditions": "male and female Apoe-/- mice, 20 mg/kg/day, 8 weeks", "description": "The activity of the ACLY enzyme was assayed utilizing malate dehydrogenase (MDH)-coupled method kits (BC4240, Solarbio, Beijing, China). In summary, liver extracts were incubated in a reaction buffer comprising 20 mM citrate, 10 mM MgCl₂, 10 mM DTT, 0.5 U/ml of malic dehydrogenase, 0.33 mM CoASH, and 0.14 mM NADH, both in the presence and absence of 5 mM ATP. The quantity of oxaloacetate produced by ACLY catalysis was determined by measuring the alteration in absorbance at 340 nm, which corresponds to the depletion of NADH during the MDH-catalyzed reaction. After accounting for background variations in absorbance in the absence of ATP, the relative ACL activities were computed by normalizing the data to the weight of the liver tissue."}, "C57BL/6J mice": {"system": "C57BL/6J mice", "assay": "Safety assessment in normal C57BL/6J mice", "assay_type": "in vivo, mouse", "conditions": "20 mg/kg/day i.p., 4 weeks, male C57BL/6J"}}}
{"smiles": "COc1ccc(-c2cc(=O)c3c(O)cc(O)c(-c4cc(-c5cc(=O)c6c(O)cc(O)cc6o5)ccc4OC)c3o2)cc1", "note": "[ISOGK, Isoginkgetin]", "values": [{"measurement": "Kd", "setting": "recombinant ACLY protein", "value": 5.1, "unit": "µM"}, {"measurement": "ACLY enzyme activity in liver tissue", "setting": "ACLY", "value": "significantly inhibits ACLY activity"}, {"measurement": "H&E staining of heart, liver, spleen, lungs, kidneys", "setting": "C57BL/6J mice", "value": "no histological differences"}, {"measurement": "PAS staining of kidney tissues", "setting": "C57BL/6J mice", "value": "no significant difference in glycogen deposits"}, {"measurement": "body weight vs vehicle", "setting": "C57BL/6J mice", "value": "no statistically significant differences"}, {"measurement": "fasting blood glucose (FBG) vs vehicle", "setting": "C57BL/6J mice", "value": "no statistically significant differences"}, {"measurement": "lactate dehydrogenase (LDH)", "setting": "C57BL/6J mice", "value": "no variation"}, {"measurement": "ratio of liver weight to body weight", "setting": "C57BL/6J mice", "value": "no significant change"}, {"measurement": "serum ALT, AST, ALP, BUN, CREA, CK, CK-MB vs vehicle", "setting": "C57BL/6J mice", "value": "did not induce any significant difference"}]}
